Literature values as cited in PMC12694011, “Update and ADMET Profile of the Latin American Natural Product Database: LANaPDB” (Molecular Informatics, 2025).

Tested on: not given
Design: method as in PMID 19947605
Settings: amphoteric drugs

paracellular transport (in words)	SMILES
undergo extensive paracellular transport	CC1(C)S[C@@H]2[C@H](/N=C/N3CCCCCC3)C(=O)N2[C@H]1C(=O)O [amdinocillin]
undergo extensive paracellular transport	CN1C(C(=O)Nc2ccccn2)=C(O)c2ccccc2S1(=O)=O [piroxicam]
undergo extensive paracellular transport	N[C@@H]1[C@H]2CN(c3nc4c(cc3F)c(=O)c(C(=O)O)cn4-c3ccc(F)cc3F)C[C@@H]12 [trovafloxacin]
undergo extensive paracellular transport	Nc1nc(O)c2ncn(COC(CO)CO)c2n1 [ganciclovir]

Tested on: hERG channel
Settings: not given

SMILES	hERG channel blocking (in words)
OCCN1CCN(CCCN2c3ccccc3Sc3ccc(Cl)cc32)CC1 [perphenazine]	potent hERG channel blockers
O=c1[nH]c2ccccc2n1C1CCN(CCCC(c2ccc(F)cc2)c2ccc(F)cc2)CC1 [pimozide]	potent hERG channel blockers
Fc1ccc(C(c2ccc(F)cc2)N2CCN(C/C=C/c3ccccc3)CC2)cc1 [flunarizine]	potent hERG channel blockers
